Assay results as given in PubChem BioAssay (NCI).
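Grown in 96-well plates, cells were treated for 48 hours with each compound at five concentrations. Insufficient inhibition: endpoint recorded as highest concentration tested. The concentration for 50% growth inhibition is given as GI50. The concentration for full growth arrest is given as TGI.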

Legend:
Assay in all cases: growth of human tumour cells (NCI), 48 h
MDA-MB-435 = tested on: MDA-MB-435
NCI-H226 lung = tested on: NCI-H226 lung
NCI-H460 lung = tested on: NCI-H460 lung
OVCAR-3 ovarian = tested on: OVCAR-3 ovarian
SN12C renal = tested on: SN12C renal
SNB-19 CNS = tested on: SNB-19 CNS
T-47D breast = tested on: T-47D breast

Which GI50 (MDA-MB-435) does the source give for `COc1cc(S(=O)(=O)Nc2ccc(C(=O)/C=C/c3ccc(O)cc3)cc2)ccc1F` here?
Its GI50 is > 100 µM.

And the TGI (MDA-MB-435)?
Its TGI is > 100 µM.

And the GI50 (NCI-H226 lung)?
The GI50 was 22.4 µM.

What about the TGI (NCI-H226 lung) of the same molecule?
Its TGI is 76.2 µM.

And the GI50 (NCI-H460 lung)?
The GI50 was > 100 µM.

What about the TGI (NCI-H460 lung) of the same molecule?
The TGI was > 100 µM.

What about the GI50 (OVCAR-3 ovarian) of the same molecule?
Its GI50 is > 100 µM.

What about the TGI (OVCAR-3 ovarian) of the same molecule?
Its TGI is > 100 µM.

What about the GI50 (SN12C renal) of the same molecule?
Its GI50 is 2.61 µM.

What about the TGI (SN12C renal) of the same molecule?
The TGI was 89.7 µM.

What about the GI50 (SNB-19 CNS) of the same molecule?
The GI50 was > 100 µM.

What about the TGI (SNB-19 CNS) of the same molecule?
Its TGI is > 100 µM.

And the GI50 (T-47D breast)?
Its GI50 is > 100 µM.

And the TGI (T-47D breast)?
Its TGI is > 100 µM.
